Experimental findings from article PMC8741970, “Ablation of VLA4 in multiple myeloma cells redirects tumor spread and prolongs survival” (Scientific Reports, 2022) are described below.

Entries after “also recorded” stand apart in the source; their conditions may differ.

For data set [1], the target named is activated VLA4 on CD138+CD38+ MM PCs (Homo sapiens, UniProt P05556+P13612). As to conditions: nineteen de-identified BM samples from myeloma patients (13/19); HBSS with Ca2+, Mg2+, 0.1% BSA. As for the experimental part: […] The human and mouse FC receptors were blocked by human BD Fc block and mouse BD Fc block, respectively. The cell suspension was incubated with fluorochrome-conjugated monoclonal antibodies in dark, at room temperature, for 30 min. Cells were washed twice with buffer afterward, and then proceeded analysis on a Beckman Coulter Gallios flow cytometer. The dead cells were excluded by using 7-amino-actinonycin D (7-AAD). The data were analyzed on FlowJo software. The appropriate isotype antibodies were used as controls.
Chain of activated VLA4 on CD138+CD38+ MM PCs (P13612 34-1032): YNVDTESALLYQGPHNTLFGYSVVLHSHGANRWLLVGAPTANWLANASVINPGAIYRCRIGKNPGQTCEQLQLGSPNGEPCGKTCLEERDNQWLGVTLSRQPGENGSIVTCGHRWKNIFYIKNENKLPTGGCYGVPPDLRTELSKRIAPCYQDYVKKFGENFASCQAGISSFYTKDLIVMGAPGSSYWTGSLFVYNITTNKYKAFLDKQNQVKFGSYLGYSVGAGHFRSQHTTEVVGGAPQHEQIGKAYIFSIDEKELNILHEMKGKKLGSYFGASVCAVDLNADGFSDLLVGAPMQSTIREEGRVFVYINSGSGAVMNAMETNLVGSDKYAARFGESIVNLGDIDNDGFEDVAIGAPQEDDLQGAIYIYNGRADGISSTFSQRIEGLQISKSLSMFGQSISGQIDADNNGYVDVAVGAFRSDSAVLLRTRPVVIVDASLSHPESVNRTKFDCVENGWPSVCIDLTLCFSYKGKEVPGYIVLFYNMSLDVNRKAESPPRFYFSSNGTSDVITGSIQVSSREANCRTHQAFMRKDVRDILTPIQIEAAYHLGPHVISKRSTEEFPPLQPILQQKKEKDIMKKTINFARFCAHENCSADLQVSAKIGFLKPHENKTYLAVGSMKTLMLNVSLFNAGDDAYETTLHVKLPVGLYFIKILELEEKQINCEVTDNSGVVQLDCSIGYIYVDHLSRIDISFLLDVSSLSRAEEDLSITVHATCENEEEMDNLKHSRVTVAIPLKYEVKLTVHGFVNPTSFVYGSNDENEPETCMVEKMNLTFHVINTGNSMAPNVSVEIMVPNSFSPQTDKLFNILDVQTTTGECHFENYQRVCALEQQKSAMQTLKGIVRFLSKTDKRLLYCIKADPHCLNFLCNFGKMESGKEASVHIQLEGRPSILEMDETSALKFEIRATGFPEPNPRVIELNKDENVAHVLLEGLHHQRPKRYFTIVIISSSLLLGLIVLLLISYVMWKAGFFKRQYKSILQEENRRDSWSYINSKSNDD
Chain of activated VLA4 on CD138+CD38+ MM PCs (P05556 21-798): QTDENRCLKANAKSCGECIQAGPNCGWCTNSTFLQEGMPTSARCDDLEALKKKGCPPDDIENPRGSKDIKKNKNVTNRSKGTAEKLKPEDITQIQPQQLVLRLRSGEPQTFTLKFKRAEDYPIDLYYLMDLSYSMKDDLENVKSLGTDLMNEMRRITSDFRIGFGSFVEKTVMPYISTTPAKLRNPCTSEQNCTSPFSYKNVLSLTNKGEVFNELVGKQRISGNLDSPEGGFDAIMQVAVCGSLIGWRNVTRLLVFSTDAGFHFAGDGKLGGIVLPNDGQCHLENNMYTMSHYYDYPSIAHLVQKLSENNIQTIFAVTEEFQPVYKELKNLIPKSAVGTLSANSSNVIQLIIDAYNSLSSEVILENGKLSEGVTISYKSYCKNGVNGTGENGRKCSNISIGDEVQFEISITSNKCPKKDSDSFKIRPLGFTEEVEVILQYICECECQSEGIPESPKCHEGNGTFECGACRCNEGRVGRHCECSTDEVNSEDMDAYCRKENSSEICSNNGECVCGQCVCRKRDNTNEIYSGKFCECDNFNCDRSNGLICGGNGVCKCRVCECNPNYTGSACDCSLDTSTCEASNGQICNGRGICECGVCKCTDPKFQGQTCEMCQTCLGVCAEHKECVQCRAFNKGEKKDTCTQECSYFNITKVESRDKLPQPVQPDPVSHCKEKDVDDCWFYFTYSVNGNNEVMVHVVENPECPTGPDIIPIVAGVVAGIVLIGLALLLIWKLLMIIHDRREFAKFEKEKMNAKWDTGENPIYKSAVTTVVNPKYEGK

Another data set deals with B-lymphocytes. The data set can be described thus: Binding studies with MM patient BM samples, B-lymphocytes. On the set-up: species or system human. As for the experimental part: (§1) Purified cells were > 97% for CD38 + CD138 + plasma cells.
(§2) The data were analyzed on FlowJo software. The appropriate isotype antibodies were used as controls.

For data set [2], the system named is VLA4 expressing cells in BM and spleen of 5TGM1-GFP tumor mice. The data set can be described thus: FACS of ex vivo tissue samples after LLP2A-Cy5 injection. Format: in vivo, mouse. As to conditions: after i.v. LLP2A-Cy5. Here is the method: as §2
(§3) [picture] Supplementary Figure 4. […] In vivo 3D fluorescence imaging was performed on IVIS Spectrum CT (PerkinElmer, Waltham, MA) with auto-exposure settings in the GFP wavelength (Ex./Em. 480nm/520nm) filter pair. […] GFP^+ cells were co-stained with PE-conjugated anti-mouse CD49d and eFluor450-conjugated anti-mouse CD29 antibodies (middle; Thermo Fisher Scientific) to identify VLA4^+ cells.

The next data set has as its system monocytes. Nature of the data set: Binding studies with MM patient BM samples, monocytes. On the set-up: species or system human. Here is the method: as §1, §2
Data set [3] concerns the target activated VLA4 on the surface of the 5TGM1-GFP murine myeloma cells (Mus musculus, UniProt P09055+Q00651). Nature of the data set: Confocal microscopy of cell surface binding and internalization of Cy5-labelled probes. As to conditions: WT 5TGM1-GFP cells.
Procedure: Blue, green and red colors represent nuclear stain, GFP, and Cy5 signal, respectively in all images (60x; scale bar: 20 µm). […] BIO5192 (100 nM) was used to evaluate non-specific binding.
WT 5TGM1-GFP cells were plated on 35 mm glass bottom MatTek dishes pre-coated with poly-D-lysine (glass no. 1.5; MatTek Corporation, MA) at 10^5 cells/cm^2 and allowed to attach for 1 h at 37 °C. Cells were incubated with the Cy5-labelled probes (1 µM) at 4 °C for 15 min, and at 37 °C for 2.5 h to assess cell surface binding specificity and cellular internalization, respectively. Hoechst 34,580 (10 µg/L, Invitrogen, CA) was added for the last 15 min of incubation to counterstain cell nuclei. Fluorescence confocal microscopy was performed on a Nikon A1Rsi confocal microscope (Nikon Corporation, Tokyo, Japan) with 60X and 100X oil immersion objectives using excitation-emission settings at 405 nm-450/40 nm (Hoechst 34,580), 488 nm-530/20 nm (GFP), and 640–660/20 nm (Cy5).
Data set [4] relates to 5TGM1-GFP tumors in C57Bl/KaLwRij mice. Nature of the data set: In vivo and ex vivo NIR fluorescence imaging in the 5TGM1/KaLwRij i.v. MM model. On the set-up: species or system mouse. As for the experimental part: All animal studies were conducted according to protocols approved by the Washington University Animal Studies Committee. Mice were anesthetized for all treatments and imaging with 2% v/v isoflurane/100% O2. Female 1–3 month-old C57Bl/6 KaLwRij mice were injected intravenously (i.v.) with 10^6 5TGM1-GFP cells in 100 µL 1 × PBS via the lateral tail vein. Imaging studies were performed 3–4 weeks after tumor implantation. Prior to imaging, hair was removed by gentle clipping and depilatory cream to improve light transmission. Supplemental Fig. S1. […] The images were background subtracted and gated by fluorescence lifetime to minimize autofluorescence and diet-related non-specific fluorescence[65],[66].
Supplementary Fig. 4. Mice were anesthetized for all imaging with 2% v/v isoflurane/100% O2. Female (n = 2)1–3 month old C57Bl/6 KaLwRij mice were injected with 1 × 10^6 5TGM1-GFP WT in 100 µL PBS via the lateral tail-vein. In vivo 3D fluorescence imaging in Supplemental Fig. 3A was performed on IVIS Spectrum CT (PerkinElmer, Waltham, MA) with auto-exposure settings in the GFP wavelength (Ex./Em. 480 nm/520 nm) filter pair.
Supplementary Fig. 5. Mice were anesthetized for all imaging with 2% v/v isoflurane/100% O2. Female 1–3 month old C57Bl/6 KaLwRij mice were injected with 1 × 10^6 5TGM1-GFP WT (n = 11) or KO (n = 12) cells in 100 µL PBS via the lateral tail-vein.
2D analysis and 3D in vivo and ex vivo reconstructions were performed using the Living Image 4.7.1 analysis software. Background fluorescence was subtracted automatically via the “Adaptive Background Subtraction” module within the Living Image 4.7.1 program. Analysis of 2D ex vivo fluorescent images was performed by measuring Total Radiant Efficiency (TRE) (photons/sec/cm^2/sr)/(μW/cm^2) from ROIs drawn around bone and muscle tissue in the GFP and Cy5 images. Tissue to muscle ratio was calculated by dividing TREs of tissue by TREs of muscle tissue of each respective mouse.
as §3

The target in another data set is activated VLA4 on OPM2 (Homo sapiens, UniProt P05556+P13612). As to conditions: OPM2, flow cytometry. Here is the method: (§4) The single cells were suspended in phosphate-buffered saline (PBS) with 0.1% bovine serum albumin as buffer. The human and mouse FC receptors were blocked by human BD Fc block and mouse BD Fc block, respectively. The cell suspension was incubated with fluorochrome-conjugated monoclonal antibodies in dark, at room temperature, for 30 min. Cells were washed twice with buffer afterward, and then proceeded analysis on a Beckman Coulter Gallios flow cytometer. The dead cells were excluded by using 7-amino-actinonycin D (7-AAD). The data were analyzed on FlowJo software. The appropriate isotype antibodies were used as controls.
Chain of activated VLA4 on OPM2 (P13612 34-1032): as the sequence (P13612 34-1032) above
Chain of activated VLA4 on OPM2 (P05556 21-798): as the sequence (P05556 21-798) above
On the technique in general: A flow cytometer gives signals particle by particle.

Data set [5] has as its target activated VLA4 on RPMI-8226 (Homo sapiens, UniProt P05556+P13612). The settings on record: RPMI-8226, flow cytometry. Here is the method:
as §4

A further data set concerns the target activated VLA4 on U266 (Homo sapiens, UniProt P05556+P13612). As to conditions: U266, flow cytometry. Here is the method: as §4
A further data set addresses activated VLA4 on 5TGM1 (Mus musculus, UniProt P09055+Q00651). The settings on record: 5TGM1, flow cytometry. As for the experimental part:
as §4

A further data set has as its target activated VLA4 on MM1.S (Homo sapiens, UniProt P05556+P13612). The settings on record: flow cytometry. Here is the method:
as §4

The next data set has as its target activated VLA4 on H929 (Homo sapiens, UniProt P05556+P13612). As to conditions: H929, flow cytometry. As for the experimental part:
as §4

For the next data set, the system named is VLA4 KO 5TGM1-GFP cells. Nature of the data set: Flow cytometry binding to Itga4 KO 5TGM1-GFP cells. Further details: species or system murine. The settings on record: for binding to KO cells (flow cytometry gate): 1.5 × 10^5 Itga4 KO 5TGM1-GFP cells, no BIO5192; for binding to KO cells after pre-incubation with BIO5192: Itga4 KO 5TGM1-GFP cells, pre-incubation with an established therapeutic dose of BIO5192. As for the experimental part: as §4

For data set [6], the target named is T1, VLA4 on WT 5TGM1-GFP cells (Mus musculus, UniProt P09055+Q00651).
T1 construct: endogenous in cells; host or cells: WT 5TGM1-GFP murine myeloma cells
T1 sequence (Q00651 34-1039 limits assumed): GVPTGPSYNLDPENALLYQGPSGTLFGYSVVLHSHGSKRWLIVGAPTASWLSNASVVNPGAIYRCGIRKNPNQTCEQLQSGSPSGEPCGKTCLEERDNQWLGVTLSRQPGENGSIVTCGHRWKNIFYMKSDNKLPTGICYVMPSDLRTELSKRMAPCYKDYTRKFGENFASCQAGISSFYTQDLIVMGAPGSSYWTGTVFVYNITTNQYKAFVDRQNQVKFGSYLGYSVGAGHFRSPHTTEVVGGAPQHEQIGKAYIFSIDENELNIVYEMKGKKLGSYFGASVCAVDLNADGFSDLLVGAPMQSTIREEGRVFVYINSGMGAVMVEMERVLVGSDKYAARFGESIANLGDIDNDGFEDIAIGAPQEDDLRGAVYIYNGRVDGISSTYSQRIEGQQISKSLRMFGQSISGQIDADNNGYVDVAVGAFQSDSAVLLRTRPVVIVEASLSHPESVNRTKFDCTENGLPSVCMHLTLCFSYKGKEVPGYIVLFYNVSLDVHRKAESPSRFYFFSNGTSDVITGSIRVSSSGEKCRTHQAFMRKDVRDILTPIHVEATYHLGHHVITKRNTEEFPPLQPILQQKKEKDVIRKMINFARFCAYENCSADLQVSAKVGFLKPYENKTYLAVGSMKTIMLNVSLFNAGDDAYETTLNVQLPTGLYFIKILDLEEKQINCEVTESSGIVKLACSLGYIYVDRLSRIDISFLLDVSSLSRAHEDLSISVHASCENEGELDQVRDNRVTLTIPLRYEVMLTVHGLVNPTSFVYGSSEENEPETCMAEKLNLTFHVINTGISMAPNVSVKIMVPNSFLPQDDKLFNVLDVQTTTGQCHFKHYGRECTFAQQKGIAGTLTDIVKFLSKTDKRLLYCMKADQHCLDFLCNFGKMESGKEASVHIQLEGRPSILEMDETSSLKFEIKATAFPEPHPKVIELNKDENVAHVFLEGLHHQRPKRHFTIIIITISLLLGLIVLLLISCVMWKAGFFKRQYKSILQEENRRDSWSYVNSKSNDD
T1 sequence (P09055 21-798): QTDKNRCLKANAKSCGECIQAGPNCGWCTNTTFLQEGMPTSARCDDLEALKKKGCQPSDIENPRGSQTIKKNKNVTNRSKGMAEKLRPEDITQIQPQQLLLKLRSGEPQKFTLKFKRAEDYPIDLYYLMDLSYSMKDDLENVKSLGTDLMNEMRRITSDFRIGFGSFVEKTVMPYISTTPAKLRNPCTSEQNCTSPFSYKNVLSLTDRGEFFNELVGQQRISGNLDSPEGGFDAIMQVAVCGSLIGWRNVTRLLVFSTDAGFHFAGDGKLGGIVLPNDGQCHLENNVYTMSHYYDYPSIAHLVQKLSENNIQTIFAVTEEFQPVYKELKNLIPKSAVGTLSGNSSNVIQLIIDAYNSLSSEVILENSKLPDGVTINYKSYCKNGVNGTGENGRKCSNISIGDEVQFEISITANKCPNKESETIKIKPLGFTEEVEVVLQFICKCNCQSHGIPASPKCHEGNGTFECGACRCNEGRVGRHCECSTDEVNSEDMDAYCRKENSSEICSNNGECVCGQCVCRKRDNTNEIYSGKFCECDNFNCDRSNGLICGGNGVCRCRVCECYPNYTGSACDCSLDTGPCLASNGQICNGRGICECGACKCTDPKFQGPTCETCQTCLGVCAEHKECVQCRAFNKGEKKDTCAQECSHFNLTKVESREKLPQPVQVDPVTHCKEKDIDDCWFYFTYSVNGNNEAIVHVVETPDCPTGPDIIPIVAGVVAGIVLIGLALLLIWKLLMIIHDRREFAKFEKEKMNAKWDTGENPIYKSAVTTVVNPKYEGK
The data set can be described thus: Flow cytometry binding to WT 5TGM1-GFP cells. On the set-up: species or system murine. As to conditions: for binding to WT cells (flow cytometry gate): 1.5 × 10^5 WT 5TGM1-GFP cells, no BIO5192; for binding to WT cells after pre-incubation with BIO5192: WT 5TGM1-GFP cells, pre-incubation with an established therapeutic dose of BIO5192. As for the experimental part:
as §4

The test system of the next data set is T-lymphocytes. The data set can be described thus: Binding studies with MM patient BM samples, T-lymphocytes. Further details: species or system human. Here is the method: as §1, §2
The mark [7] stands for this setting: ex vivo biodistribution 18 h after i.v. 100 µL of 25 µM LLP2A-Cy5, 5TGM1-GFP WT tumor mice, 3 weeks post inoculation, mean ± SD.

Chain of activated VLA4 on the surface of the 5TGM1-GFP murine myeloma cells (Q00651 34-1039 limits assumed): as the sequence (Q00651 34-1039 limits assumed) above
Chain of activated VLA4 on the surface of the 5TGM1-GFP murine myeloma cells (P09055 21-798): as the sequence (P09055 21-798) above
Chain of activated VLA4 on 5TGM1 (Q00651 34-1039 limits assumed): as the sequence (Q00651 34-1039 limits assumed) above
Chain of activated VLA4 on 5TGM1 (P09055 21-798): as the sequence (P09055 21-798) above
Chain of activated VLA4 on MM1.S (P13612 34-1032): as the sequence (P13612 34-1032) above
Chain of activated VLA4 on MM1.S (P05556 21-798): as the sequence (P05556 21-798) above
Chain of activated VLA4 on H929 (P13612 34-1032): as the sequence (P13612 34-1032) above
Chain of activated VLA4 on H929 (P05556 21-798): as the sequence (P05556 21-798) above
Chain of activated VLA4 on RPMI-8226 (P13612 34-1032): as the sequence (P13612 34-1032) above
Chain of activated VLA4 on RPMI-8226 (P05556 21-798): as the sequence (P05556 21-798) above
Chain of activated VLA4 on U266 (P13612 34-1032): as the sequence (P13612 34-1032) above
Chain of activated VLA4 on U266 (P05556 21-798): as the sequence (P05556 21-798) above

On to `Cc1ccccc1NC(=O)Nc1ccc(CC(=O)N[C@@H](CCCCNC(=O)/C=C/c2cccnc2)C(=O)N[C@@H](CCCC(=O)O)C(=O)NC2(C(N)=O)CCCCC2)cc1` [LLP2A-Cy5], for which the “share of patient samples in which LLP2A-Cy5 stained over 20% of CD138+CD38+ MM PCs” value in data set [1] is 68%. Besides, the “percentage of LLP2A-Cy5+ cells” value is 23.3% with B-lymphocytes, 58.2% in the data set with monocytes and 36.3% in the data set on T-lymphocytes. The “relative median fluorescence (RMFI)” value in the data set with B-lymphocytes was determined as 1.7; in the data set with monocytes, 3.0; in the data set on T-lymphocytes it was 2.2. In addition, in data set [2] (ex vivo BM, GFP+ tumor cells (97.5% VLA4+)), the “% LLP2A-Cy5+ cells in the BM” value was 84.7%. In data set [2] (hematopoietic BM niche (63.6% VLA4+)), the “% LLP2A-Cy5+ cells in the hematopoietic BM niche” value is 53.2%. Moreover, the “cellular localization after extended incubation” value in data set [3] (1 µM, 37 °C, 2.5 h, confocal 3D z-stack) is “dominant cell membrane binding; also recorded: strong cell surface binding with minimal internalization”. Moreover, the “fold reduction of cell surface binding on blocking with excess unlabeled peptide” value in data set [3] (LLP2A-Cy5 1 µM co-incubated with 100-fold excess LLP2A-PEG4 (100 µM), 15 min, 4 °C, confocal microscopy) worked out at 3.07 ± 0.3 fold. Also, in [4] (KaLwRij mice with Itga4 KO versus WT 5TGM1-GFP tumors, ex vivo fluorescence imaging 18 h after LLP2A-Cy5), the “uptake in KO tumor foci compared with WT” value is “significantly reduced uptake”. Further, the femur-muscle fluorescence ratio in data set [4] (setting [7]) is 7.0 ± 2.5. The spleen-muscle fluorescence ratio in data set [4] (setting [7]) stood at 2.6 ± 0.7. Also, in data set [4] (noninvasive fluorescence imaging before, 4 and 18 h after i.v. 100 µL of 25 µM LLP2A-Cy5), the “time post-injection at which tumor contrast peaked” value was ~ 18 h. Besides, the “% LLP2A-Cy5+” value at activated VLA4 on OPM2 came to 80.1%; in data set [5] it was 59.5%; on activated VLA4 on U266, 100%; on activated VLA4 on 5TGM1, 100%; at activated VLA4 on MM1.S, 22.4%; on activated VLA4 on H929, 63.3%. Besides, the “LLP2A-Cy5+ median fluorescence intensity (MFI)” value on activated VLA4 on OPM2 amounted to 4.6; in data set [5] it was 3.2; on activated VLA4 on U266, 16.1; on activated VLA4 on 5TGM1, 23.4; on activated VLA4 on MM1.S, 2.1; on activated VLA4 on H929, 3.4. Besides, the “binding to KO cells (flow cytometry gate)” value in the data set on VLA4 KO 5TGM1-GFP cells was found to be 0.6%. Moreover, the “binding to KO cells after pre-incubation with BIO5192” value with VLA4 KO 5TGM1-GFP cells is given as 0.52%. In addition, in data set [6], the “binding to WT cells (flow cytometry gate)” value is listed as 100%. The “binding to WT cells after pre-incubation with BIO5192” value in data set [6] is reported as 0.95%.

B1: sVCAM-1: soluble vascular cell adhesion molecule-1, natural ligand of VLA4 (protein, UniProt P19320 25-698, looked up)
extracellular domain: FKIETTPESRYLAQIGDSVSLTCSTTGCESPFFSWRTQIDSPLNGKVTNEGTTSTLTMNPVSFGNEHSYLCTATCESRKLEKGIQVEIYSFPKDPEIHLSGPLEAGKPITVKCSVADVYPFDRLEIDLLKGDHLMKSQEFLEDADRKSLETKSLEVTFTPVIEDIGKVLVCRAKLHIDEMDSVPTVRQAVKELQVYISPKNTVISVNPSTKLQEGGSVTMTCSSEGLPAPEIFWSKKLDNGNLQHLSGNATLTLIAMRMEDSGIYVCEGVNLIGKNRKEVELIVQEKPFTVEISPGPRIAAQIGDSVMLTCSVMGCESPSFSWRTQIDSPLSGKVRSEGTNSTLTLSPVSFENEHSYLCTVTCGHKKLEKGIQVELYSFPRDPEIEMSGGLVNGSSVTVSCKVPSVYPLDRLEIELLKGETILENIEFLEDTDMKSLENKSLEMTFIPTIEDTGKALVCQAKLHIDDMEFEPKQRQSTQTLYVNVAPRDTTVLVSPSSILEEGSSVNMTCLSQGFPAPKILWSRQLPNGELQPLSENATLTLISTKMEDSGVYLCEGINQAGRSRKEVELIIQVTPKDIKLTAFPSESVKEGDTVIISCTCGNVPETWIILKKKAETGDTVLKSIDGAYTIRKAQLKDAGVYECESKNKVGSQLRSLTLDVQGRENNKDYFSPE
modifications: extracellular domain
notes: soluble vascular cell adhesion molecule-1, natural ligand of VLA4
Take B1: in the data set on VLA4 KO 5TGM1-GFP cells, the “binding to KO cells (flow cytometry gate)” value was 1.65 ± 0.07% and the “binding to KO cells after pre-incubation with BIO5192” value is 2.51%. In addition, in data set [6], the “binding to WT cells (flow cytometry gate)” value was 97.7% and the “binding to WT cells after pre-incubation with BIO5192” value is 3.33%.
